Earlier results on 17 molecules are cited in patent publication US20090030403A1, “Methods and Systems for Attenuating the Tolerance Response to a Drug” (priority 2007, published 2009).

Read-outs that look alike come from different tables or passages of the source.

[1] abbreviates: system removing the drug or its metabolites.
Where [2] appears, read: system responsible for the drug's metabolism.

With `NC(=O)CCC/N=C(\c1ccc(Cl)cc1)c1cc(F)ccc1O` [Progabide], where the note is “in vivo”, the Bioavailability was 0.6 and the Half life is 4 h. The Excretion entry under setting [1] is “Renal”. Further, under setting [2], the Metabolism result is given as “Hepatic”.

Regarding `NCC1(CC(=O)O)CCCCC1` [Gabapentin], for the setting “in vivo”, the Bioavailability is 60% for 0.9 g daily to 27% for 4.8 g daily dose; the “Bioavailability (absorption in words)” value was “Rapid, in part by saturable carrier-mediated L-”; the Excretion result was “Renal”; the “Food increases absorption by” value is on record as “Food increases absorption by 14%”. Further, the Half life (in vivo) was 5 to 7 h. Further, the Metabolism result under setting [2] is reported as “not appreciably metabolized”.

For `O=C1CN=C(c2ccccc2)c2cc([N+](=O)[O-])ccc2N1` [Nitrazepam], for the setting “in vivo”, the Excretion result was “Renal” and the Half life is 20 to 40 h. For the same molecule, under setting [2], the Metabolism entry is reported as “Hepatic”.

With `CC1(C)O[C@@H]2[C@@H](CO[C@@]3(COS(N)(=O)=O)OC(C)(C)O[C@@H]23)O1` [Topiramate, 2,3:4,5-bis-O-(1-methylethylidene)-beta-D-fructopyranose sulfamate], under “in vivo”, the Half life was 19 to 23 h and the “Metabolism, hepatic share” value is reported as 30%.

For the molecule `O=C1CN=C(c2ccccc2Cl)c2cc([N+](=O)[O-])ccc2N1` [Clonazepam], for the setting “in vivo”, the Bioavailability is 0.9, the Excretion entry is reported as “Renal”, the Half life was 30 to 40 h and the Metabolism entry is listed as “Hepatic CYP3A4”.

Regarding `CCN1C(=O)NC(c2ccccc2)C1=O` (stereo not shown) [Ethotoin], under “in vivo”, the Half life was 3 to 9 h.

Take `C=CC(N)CCC(=O)O` (stereo not shown) [Vigabatrin]: the Bioavailability (in vivo) was 80-90%. For the same molecule, the Excretion entry under setting [1] is “Renal”. In addition, under setting [2], the Metabolism entry is recorded as “Almost no metabolic transformation occurs”. For the same molecule, the Half life is 12 to 13 h (the elderly) and 5 to 8 h (young adults).

With `NC(=O)N1c2ccccc2CC(=O)c2ccccc21` [Oxcarbazepine], the Half life (healthy adults) was 1 to 5 h (healthy adults). Further, the Bioavailability (in vivo) is on record as more than 95%.

As to `Cc1ccsc1C(=CCCN1CCC[C@@H](C(=O)O)C1)c1sccc1C` [Tiagabine], the Half life (in vivo) is 7 to 9 h. Moreover, the Excretion entry under setting [1] was “Fecal and renal”. Also, under setting [2], the Metabolism entry was “Hepatic (CYP450 system)”.

With `CN1C(=O)CC(=O)N(c2ccccc2)c2cc(Cl)ccc21` [Clobazam], where the note is “in vivo”, the Half life was 18 h. For the same molecule, the Excretion entry under setting [1] was “Renal”. Under setting [2], the Metabolism entry is recorded as “Hepatic”.

Regarding `O=C1NC(c2ccccc2)(c2ccccc2)C(=O)N1COP(=O)(O)O` [Fosphenytoin], the Half life (to convert to phenytoin) is recorded as 15 minutes to convert to phenytoin.

With `O=C(O)C1N=C(c2ccccc2)c2cc(Cl)ccc2NC1=O` (stereo not shown) [Clorazepate], where the note is “in vivo”, the Bioavailability is 0.91 and the Half life is 36 to 100 h. For the same molecule, the Excretion result under setting [1] is listed as “Renal”. Under setting [2], the Metabolism entry is given as “Hepatic”.

In the case of `CC(=O)Nc1nnc(S(N)(=O)=O)s1` [Acetazolamide], the Half life (in vivo) was 3 to 9 h.

As to `CC[C@@H](C(N)=O)N1CCCC1=O` [Levetiracetam, α-ethyl-2-oxo-1-pyrrolidineacetamide], for the setting “in vivo”, the Half life is 6 to 8 h. Further, under setting [1], the Excretion entry is “Renal”. Besides, the Metabolism entry under setting [2] was “Renal”.

Turning to `NC(=O)OCC(COC(N)=O)c1ccccc1` [Felbamate], for the setting “in vivo”, the Bioavailability is reported as more than 90% and the Half life is 20 to 23 h. Also, the Metabolism entry under setting [2] was “Hepatic”.

For the molecule `NS(=O)(=O)c1ccc(N2CCCCS2(=O)=O)cc1` [Sultiame], under “in vivo”, the Half life was 24 hour hours. Moreover, the Bioavailability (oral) is on record as 100% (oral). The Excretion entry under setting [1] is “Fecal (10%) and renal (90%)”. The Metabolism result under setting [2] is on record as “Hepatic secretion”.

Regarding `Nc1nnc(-c2cccc(Cl)c2Cl)c(N)n1` [Lamotrigine], where the note is “healthy adults”, the Half life is 24 to 34 h (healthy adults). Also, the Excretion entry under setting [1] is on record as “Renal”. Besides, under setting [2], the Metabolism entry is on record as “Hepatic”.
